From US9340511B2, “Process for making isoquinoline compounds” (FIBROGEN, INC., priority 2012, dated 2016)

system: Hep3B cells; test: Cell-Based EPO Assay; set-up: species or system human; conditions: 30 μM compound in DMSO compared to DMSO only control, 72 hours, value minus vehicle control
Experimental: Cell-Based EPO Assay Hep3B cells (human hepatocellular carcinoma cells from ATCC, cat # HB-8064) were plated at 25,000 cells per well 96 well plates. The next day, the cells were washed once with DMEM (Cellgro, cat #10-013-CM)+0.5% fetal bovine serum (Cellgro, cat #35-010-CV) and incubated with various concentrations of compound or vehicle control (0.15% DMSO) in DMEM+0.5% fetal bovine serum for 72 hours. Cell free culture supernatants were generated by transfer to a conical bottom 96 well plate and centrifugation for 5 minutes at 2000 rpm. The supernatant was quantitated for EPO using a human EPO ELISA kit (R&D Systems, cat # DEP 00). The EPO values for the compounds reported herein (e.g., Table 1) are the measured value for cells plus compound minus the value for the vehicle control for the same cell preparation. The EPO values for the vehicle control for the cell preparations used in experiments reported herein varied from 0-12.5 mIU/ml.

Going from Cc1nc(C(=O)NCC(=O)O)c(O)c2c(Oc3ccccc3)cccc12 [Compound 1f, 2-(4-hydroxy-1-methyl-5-phenoxyisoquinoline-3-carboxamido)acetic acid] to Cc1nc(C(=O)NCC(=O)O)c(O)c2cccc(Oc3ccccc3)c12 [Compound 4f, 2-(4-hydroxy-1-methyl-8-phenoxyisoquinoline-3-carboxamido)acetic acid], the “Cell EPO* (mIU/ml)” value falls from 98.6 mIU/ml to 52 mIU/ml.

Going from Cc1nc(C(=O)NCC(=O)O)c(O)c2cc(Oc3ccccc3)ccc12 [Compound 2f, 2-(4-hydroxy-1-methyl-6-phenoxyisoquinoline-3-carboxamido)acetic acid] to COc1ccc(Oc2ccc3c(C)nc(C(=O)NCC(=O)O)c(O)c3c2)cc1 [Compound 6f, 2-[4-hydroxy-1-methyl-6-(4-methoxy-phenoxy)-isoquinoline-3-carboxamido]acetic acid], the “Cell EPO* (mIU/ml)” value rises from 78 mIU/ml to 191 mIU/ml.

First: COc1ccc(Oc2ccc3c(O)c(C(=O)NCC(=O)O)nc(C)c3c2)cc1 [Compound 5f, 2-[4-hydroxy-1-methyl-7-(4-methoxy-phenoxy)-isoquinoline-3-carboxamido]acetic acid]
Second: Cc1nc(C(=O)NCC(=O)O)c(O)c2ccc(Oc3cc(F)cc(F)c3)cc12 [Compound 7f, 2-[4-hydroxy-1-methyl-7-(3,5-difluoro-phenoxy)-isoquinoline-3-carboxamido]acetic acid]
The “Cell EPO* (mIU/ml)” value of the first is lower: 209 mIU/ml for the first, 225 mIU/ml for the second.

Cc1nc(C(=O)NCC(=O)O)c(O)c2cc(Oc3cc(F)cc(F)c3)ccc12 [Compound 8f, 2-[4-hydroxy-1-methyl-6-(3,5-difluoro-phenoxy)-isoquinoline-3-carboxamido]acetic acid] was tested, and the “Cell EPO* (mIU/ml)” value was 105 mIU/ml.
